This is an account of results in US20030044399A1, “Method of treatment” (SmithKline Beecham Corporation, priority 1998, published 2003).

The first assay deals with Cruzain (Trypanosoma cruzi, UniProt P25779). Description: Cysteine protease inhibition, progress curve method, cruzain. Type of assay: biochemical. As to conditions: 4 uM Ac-Lys-Glu-Lys-Leu-Arg-AMC, 100 mM Na acetate pH 5.5, 5 mM cysteine; read-out: Cruzain Ki. Here is the method: (§1) Standard assay conditions for the determination of kinetic constants used 10 uM fluorogenic peptide substrate, Cbz-Phe-Arg-AMC for the cysteine proteases from Leishmania spp and Schistosoma Mansoni, Cbz-Leu-Arg-AMC for the cysteine proteases from Plasmodium falciparum and Trypanosoma brucei rhodesiensi, and Ac-Lys-Glu-Lys-Leu-Arg-AMC (4 uM final substrate concentration) for the cysteine protease from Trypoanosoma cruzi, and were determined in 100 mM Na acetate at pH 5.5 containing 5 mM cysteine. Stock substrate solutions were prepared at concentrations of […] in DMSO with 10 uM (4 uM for Ac-Lys-Glu-Lys-Leu-Arg-AMC) final substrate concentration in the assays. The final DMSO concentration was 2% and the final volume was 100 uL. All assays were conducted at ambient temperature. Product progress curves were generated over 20 to 30 minutes following formation of AMC product.
Cruzain, sequence (P25779 123-337): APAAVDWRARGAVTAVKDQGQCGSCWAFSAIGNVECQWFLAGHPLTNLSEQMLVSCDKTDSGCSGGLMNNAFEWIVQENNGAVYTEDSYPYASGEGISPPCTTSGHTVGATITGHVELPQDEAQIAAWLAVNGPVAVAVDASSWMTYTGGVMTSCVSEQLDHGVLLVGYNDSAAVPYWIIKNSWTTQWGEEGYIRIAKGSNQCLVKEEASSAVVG
(§2) Potential inhibitors were evaluated using the progress curve method. Assays were carried out in the presence of variable concentrations of test compound. Reactions were initiated by addition of enzyme to buffered solutions of inhibitor and substrate. Data analysis was conducted according to one of two procedures depending on the appearance of the progress curves in the presence of inhibitors. For those compounds whose progress curves were linear, apparent inhibition constants (Ki,app) were calculated according to equation 1 (Brandt et al., Biochemitsry, 1989, 28, 140):
(§3) v=VmA/[Ka(1+I/Ki,app)+A] (1)
(§4) Where v is the velocity of the reaction with maximal velocity Vm, A is the concentration of substrate with Michaelis constant of Ka, and I is the concentration of inhibitor.
(§5) [AMC]=vsst+(v0−vss)[1−exp (−kobst)]/kobs (2)
(§6) Where [AMC] is the concentration of product formed over time t, v0 is the initial reaction velocity and vss is the final steady state rate. Values for kobs were then analyzed as a linear function of inhibitor concentration to generate an apparent second order rate constant (kobs/inhibitor concentration or kobs/[I]) describing the time-dependent inhibition. A complete discussion of this kinetic treatment has been fully described (Morrison et al., Adv. Enzymol. Relat. Areas Mol. Biol., 1988, 61, 201).
(§7) Exemplary inhibition data for the compounds used in the present method collected in accordance with the above-described procedure are listed in Table I.
Consider `CC(C)C[C@@H](NC(=O)c1cc2cc(OCCN3CCCC3)ccc2o1)C(=O)NC1CCCN(S(=O)(=O)c2ccccc2)CC1=O` (single isomer, unassigned) [Example 13], for which the inhibition constant (Ki) worked out at 32 nM.

With `Cc1ccc(C(=O)N[C@H](CC(C)C)C(=O)N[C@@H]2CCCN(S(=O)(=O)c3cccc[n+]3[O-])CC2=O)cn1` [Example 118], the inhibition constant (Ki) is 18 nM.

Take `CC(C)C[C@@H](NC(=O)c1cc2cc(OCCN3CCOCC3)ccc2o1)C(=O)N[C@@H]1CCCN(S(=O)(=O)c2ccccn2)CC1=O` (single isomer, unassigned) [Example 19]: the inhibitory constant (Ki) was found to be 2 nM.

For `CC(C)C[C@H](NC(=O)c1ccc2c(c1)OCO2)C(=O)N[C@H]1CCCN(Cc2ccccc2)CC1=O` [Example 1, benzo[1,3]dioxole-5-carboxylic acid [(S)-1-(1-benzyl-3-oxoazepan-4-ylcarbamoyl)-3-methyl-butyl]amide], the Ki stood at 58 nM.

In the case of `COc1ccc(S(=O)(=O)N2CCC[C@H](NC(=O)[C@H](CC(C)C)NC(=O)CNC(=O)c3ccco3)C(=O)C2)cc1` [Example 82], the Ki amounted to 17 nM.

For `CC(C)C[C@@H](NC(=O)c1cc2cc(OCCN3CCOCC3)ccc2o1)C(=O)N[C@@H]1CCCN(S(=O)(=O)c2ccccn2)CC1=O` (single isomer, unassigned) [Example 20], the Ki was 8 nM.

Turning to `CC(C)C[C@@H](NC(=O)COc1ccc(F)cc1)C(=O)N[C@@H]1CCCN(S(=O)(=O)c2ccccn2)CC1=O` (stereo in doubt) [Example 37, (S)-2-[2-(4-Fluoro-phenoxy)-acetylamino]-4-methyl-pentanoic acid [3-oxo-(pyridine-2-sulfonyl)-azepan-4-yl]-amide], the Ki amounted to 33 nM.

`COc1ccc2oc(C(=O)N[C@H](CC(C)C)C(=O)N[C@@H]3CCCN(S(=O)(=O)c4ccccn4)CC3=O)cc2c1` (stereo in doubt) [Example 33, 5-Methoxy-benzofuran-2-carboxylic acid {(S)-3-methyl-1-[3-oxo-1-(pyridine-2-sulfonyl)-azepan-4-ylcarbamoyl]-butyl}amide]: the Ki worked out at 14 nM.

On to `CC(C)C[C@@H](NC(=O)c1nccc2ccccc12)C(=O)N[C@@H]1CCCN(S(=O)(=O)c2ccccn2)CC1=O` (stereo in doubt) [Example 29, Isoquinoline-1-carboxylic acid {(S)-3-methyl-1-[3-oxo-1-(pyridine-2-sulfonyl)-azepan-4-ylcarbamoyl]-butyl}amide], for which the Ki came out at 11 nM.

For the compound `CC(C)C[C@@H](NC(=O)c1cc2cc(OCCN3CCOCC3)ccc2o1)C(=O)N[C@@H]1CCCN(S(=O)(=O)c2ccccc2)CC1=O` (single isomer, unassigned) [Example 7], the Ki was 23 nM.

For `COc1ccc(S(=O)(=O)N2CCCC(NC(=O)C(CC(C)C)NC(=O)c3cc4ccccc4o3)C(=O)C2)cc1` (stereo in doubt) [Example 74, Benzofuran-2-carboxylic acid {(S)-1-[1-(4-methoxy-benzenesulfonyl)-3-oxo-azepan-4-ylcarbamoyl]-3-methyl-butyl}-amide], the Ki stood at 24 nM.

`CC(C)C[C@@H](NC(=O)c1cc2ccccc2o1)C(=O)N[C@@H]1CCCN(S(=O)(=O)c2ccccc2)CC1=O` (stereo in doubt) [Example 12, Benzofuran-2-carboxylic acid [(S)-1-(1-benzenesulfonyl-3-oxo-azepan-4-ylcarbamoyl)-3-methyl-butyl]amide]: the Ki is 16 nM.

`CC(C)C[C@H](NC(=O)c1cc2ccccc2s1)C(=O)N[C@@H]1CCCN(S(=O)(=O)c2cccs2)CC1=O` [Example 146, Benzo[b]thiophene-2-carboxylic acid-{(S)-3-methyl-1-[3-oxo-1-(thiophene-2-sulfonyl)-azepan-4-ylcarbamoyl]-butyl}-amide]: the Ki was found to be 6.7 nM.

With `CC(C)C[C@@H](NC(=O)c1cc2cc(F)c(F)cc2o1)C(=O)N[C@H]1CCCN(S(=O)(=O)c2cccc[n+]2[O-])CC1=O` [Example 163, 5,6-Difluoro-benzofuran-2-carboxylic acid {(S)-3-methyl-1-[3-oxo-1-(1-oxy-pyridine-2-sulfonyl)-azepan-4-ylcarbamoyl]-butyl}amide], the Ki came out at 13 nM.

With `CC(C)C[C@H](NC(=O)c1cc2ccccc2o1)C(=O)N[C@H]1CCCN(S(=O)(=O)c2ccccc2F)CC1=O` [Example 91], the Ki turned out to be 6.2 nM.

Turning to `COc1ccc2oc(C(=O)N[C@H](CC(C)C)C(=O)N[C@@H]3CCCN(S(=O)(=O)c4cccc[n+]4[O-])CC3=O)cc2c1` [Example 53, 5-Methoxy-benzofuran-2-carboxylic acid {(S)-3-methyl-1[3-oxo-1-(1-oxy-pyridine-2-sulfonyl)-azepan-4-ylcarbamoyl]-butyl}amide], the Ki amounted to 10 nM.

Regarding `CC(C)CC(NC(=O)c1cc2ccccc2o1)C(=O)N[C@@H]1CCCN(S(=O)(=O)c2ccccc2C#N)CC1=O` (stereo partly drawn) [Example 115], the Ki came out at 14 nM.

As to `CC(C)C[C@@H](NC(=O)c1cc2cc(OCCN3CCOCC3)ccc2o1)C(=O)N[C@@H]1CCCN(S(=O)(=O)c2ccccn2)CC1=O` [Example 18, 5-(2-Morpholino-4-yl-ethoxy)-benzofuran-2-carboxylic acid {(S)-3-methyl-1-[3-oxo-1-(pyridine-2-sulfonyl)-azepan-4-ylcarbamoyl]-butyl}1-amide], the Ki is 6.3 nM.

On to `CC(C)CCC(=O)N1CCCC(NC(=O)[C@@H](CC(C)C)NC(=O)c2cc3cc(OCCN4CCOCC4)ccc3o2)C(=O)C1` (stereo partly drawn) [Example 15, 5-(2-Morpholino-4-yl-ethoxy)-benzofuran-2-carboxylic acid {(S)-3-methyl-1-[1-(4-methyl-2entanoyl)-3-oxo-azepan-4-ylcarbamoyl]-butyl}-amide], for which the Ki came to 24 nM.

`CC(C)C[C@H](NC(=O)c1cc2ccccc2o1)C(=O)N[C@H]1CCCN(S(=O)(=O)c2cccs2)CC1=O` [Example 38, Benzofuran-2-carboxylic acid {(S)-3-methyl-1-[3-oxo-1-(thiophene-2-sulfonyl)-azepan-4-ylcarbamoyl]-butyl}-amide]: the Ki amounted to 4.5 nM.

For the compound `CC(C)C[C@H](NC(=O)c1cc2ccccc2s1)C(=O)NC1CCCN(S(C)(=O)=O)CC1=O` (stereo partly drawn) [Example 111, Benzo[b]thiophene-2-carboxylic acid-{(S)-1-(1-methanesulfonyl-3-oxo-azepan-4-ylcarbamoyl)-3-methyl-butyl]-amide], the Ki was 18 nM.

For the next assay, the target named is Rhodazain (Trypanosoma brucei rhodesiense, UniProt Q95PM0). Description: Cysteine protease inhibition, progress curve method, rhodazain. The class given is biochemical, Trypanosoma brucei rhodesiensi. As to conditions: Rhodazain Ki (nM), 10 uM Cbz-Leu-Arg-AMC, 100 mM Na acetate pH 5.5, 5 mM cysteine. Here is the method: as §1, §2, §3, §4, §5, §6, §7
Rhodazain, sequence (Q95PM0 entry or part of it): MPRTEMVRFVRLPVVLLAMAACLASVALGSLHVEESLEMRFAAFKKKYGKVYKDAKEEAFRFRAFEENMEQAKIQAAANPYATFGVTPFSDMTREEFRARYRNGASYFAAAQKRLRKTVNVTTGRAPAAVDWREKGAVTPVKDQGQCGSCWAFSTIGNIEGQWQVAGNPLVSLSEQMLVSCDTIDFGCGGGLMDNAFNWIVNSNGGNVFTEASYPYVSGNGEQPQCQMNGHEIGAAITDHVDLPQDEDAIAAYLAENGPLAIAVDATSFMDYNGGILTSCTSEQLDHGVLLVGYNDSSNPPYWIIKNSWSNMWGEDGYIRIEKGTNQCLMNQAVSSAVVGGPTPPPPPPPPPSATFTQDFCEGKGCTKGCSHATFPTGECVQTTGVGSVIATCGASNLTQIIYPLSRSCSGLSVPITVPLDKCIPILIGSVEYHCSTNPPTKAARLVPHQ
With `CC(C)C[C@@H](NC(=O)c1cc2cc(F)ccc2o1)C(=O)N[C@@H]1CCCN(S(=O)(=O)c2ccccn2)CC1=O` (single isomer, unassigned) [Example 168], the Ki was determined as 2.7 nM.

In turn, `CC(C)C[C@@H](NC(=O)c1ccc2ccccc2c1)C(=O)N[C@@H]1CCCN(S(=O)(=O)c2ccccn2)CC1=O` (stereo in doubt) [Example 17, Naphthalene-2-carboxylic acid {(S)-3-methyl-1-[3-oxo-1-(pyridine-2-sulfonyl)-azepan-4-ylcarbamoyl]butyl}-amide] gave a Ki of 8.3 nM.

Turning to `CC(C)CC(NC(=O)c1ccco1)C(=O)N[C@@H]1CCCN(S(=O)(=O)c2cccc[n+]2[O-])CC1=O` (stereo partly drawn) [Example 75, Furan-2-carboxylic acid {(S)-3-methyl-1-[3-oxo-1-(1-oxy-pyridine-2-sulfonyl)-azepan-4-ylcarbamoyl]-butyl}amide], the Ki was 7.5 nM.

Turning to `CC(C)C[C@H](NC(=O)c1cc2ccccc2o1)C(=O)N[C@H]1CCCN(S(=O)(=O)c2ncc[nH]2)CC1=O` [Example 41, Benzofuran-2-carboxylic acid {(S)-3-methyl-1-[1-(1H-imidazole-2-sulfonyl)-3-oxo-azepan-4-ylcarbamoyl]-butyl}amide], the affinity corresponds to a Ki of 2.9 nM.

`O=C(N[C@@H](Cc1ccccc1)C(=O)NC1CCCN(S(=O)(=O)c2ccccn2)CC1=O)c1cccc2cccnc12` (stereo partly drawn) [Example 176, Quinoline-8-carboxylic acid {(S)-1-[3-oxo-1-(pyridine-2-sulfonyl)-azepan-4-ylcarbamoyl]-2-phenyl-ethyl}-amide] returned an inhibition constant (Ki) of 5.9 nM.

Compound `CC(C)C[C@@H](NC(=O)c1cc2cc(F)ccc2o1)C(=O)N[C@H]1CCCN(S(=O)(=O)c2ccccn2)CC1=O` (stereo in doubt) [Example 166, 5-Fluoro-benzofuran-2-carboxylic acid {(S)-3-methyl-1-[3-oxo-1-(pyridine-2-sulfonyl)-azepan-4-ylcarbamoyl]-butyl}-amide] yielded a Ki of 6 nM.

In general, Ki refers to a dissociation constant, usually derived from enzyme kinetics or from competition with a known ligand.
